Entries after “also recorded” stand apart in the source; their conditions may differ. Where two headings read alike, the source gives them in different places. One block for each compound: values may come before it.
Legend:
[1] = in vivo; cited from earlier work
[2] = Stability in human blood (HPLC); assay type: in vitro ADME; settings: 50 μM added, 48-hour incubation
Description: Aliquots of 50 μM PP1 and FF in DMSO were added to 500 μl to heparinized human blood to a final concentration of 50 μM. Following incubation at 37° C. for the indicated time points, the samples were frozen at −80° C., and later prepared for HPLC-based detection of the compounds. Please note that FF is converted to FA in the presence of human blood. […] Data represent average values with standard deviation (n=3). panel B: Water solubility. FF and PP1, were added to water to a final concentration of 50 mM and sonicated in an ultrasonic bath (Branson 1510 Digital Heated Ultrasonic bath) for one hour at room temperature. The samples were then centrifuged for 10 minutes at 16000×g, and the supernatant filtered through 0.45 μm syringe filter. […] The PPAR transcriptional activity was determined in HepG2 cells by the JsTkpGL3 reporter plasmid, which contains a firefly luciferase gene driven by the PPRE, which consists of three copies of the J site from the apo-AII gene promoter. […] The luciferase activity was detected with Dual-Luciferase reporter assay system (Promega, Madison, Wis.), and the resulting luminescence measured with Synergy 2 microplate reader (BioTek, Winooski, Vt.). […]
In this experiment, 50 μM of PP1 and 50 μM of FF were incubated with human blood at […], at indicated time points. […] In contrast, nearly 25 μM of PP1 was still detected at the 48-hour time point (FIG. 4A; left panel).

[3] = test system: LN-229 human glioblastoma cells; settings: for % cell death: 50 μM (single dose); for cell death: 25 and 50 μM, 72- and 96-hour time points
[4] = test system: LN229 human glioblastoma cell line; experiment: Cell viability (MTT assay), LN229; assay type: cell-based
[5] = test system: PPAR responsive elements (PPRE); experiment: PPAR luciferase assay (PPRE reporter) in HepG2 cells; assay type: cell-based; settings: 25 μM, 24 hrs
Description: Aliquots of 50 μM PP1 and FF in DMSO were added to 500 μl to heparinized human blood to a final concentration of 50 μM. Following incubation at 37° C. for the indicated time points, the samples were frozen at −80° C., and later prepared for HPLC-based detection of the compounds. Please note that FF is converted to FA in the presence of human blood. […] Data represent average values with standard deviation (n=3). panel B: Water solubility. FF and PP1, were added to water to a final concentration of 50 mM and sonicated in an ultrasonic bath (Branson 1510 Digital Heated Ultrasonic bath) for one hour at room temperature. The samples were then centrifuged for 10 minutes at 16000×g, and the supernatant filtered through 0.45 μm syringe filter. Water solubilized PP1 and FF were subsequently processed for HPLC analysis (see Methods). Data represent average values with standard deviation (n=3). panel C: Effects of PP compounds on PPAR responsive elements (PPRE). The PPAR transcriptional activity was determined in HepG2 cells by the JsTkpGL3 reporter plasmid, which contains a firefly luciferase gene driven by the PPRE, which consists of three copies of the J site from the apo-AII gene promoter. To normalize for efficiency of transfection the cells were additionally transfected with the pSV40-GLuc (New England Biolabs, Ipswich, Mass.) control plasmid. […] The luciferase activity was detected with Dual-Luciferase reporter assay system (Promega, Madison, Wis.), and the resulting luminescence measured with Synergy 2 microplate reader (BioTek, Winooski, Vt.). Data represent average values with standard deviation (n=6).
PPAR Luciferase Assay—The PPAR transcriptional activity was determined by utilizing the JsTkpGL3 reporter plasmid, which contains a firefly luciferase gene driven by the PPAR responsive element (PPRE), which consists of three copies of the J site from the apo-AII gene promoter. Together with JsTkpGL3 plasmid HepG2 cells were transfected with pSV40-GLuc (New England Biolabs, Ipswich, Mass.) control plasmid expressing Gaussia luciferase under the control of the constitutive SV40 early promoter to normalize for efficiency of transfection. […] The luciferase activity was detected with Dual-Luciferase reporter assay system (Promega, Madison, Wis.), and the resulting luminescence measured with Synergy 2 microplate reader (BioTek, Winooski, Vt.).

[6] = Stability of stock solution in DMSO; assay type: physicochemical
[7] = test system: LN-229 cells; experiment: Cell morphology, peroxisome accumulation in LN-229; assay type: cell-based, human; settings: DMEM 1 g/L glucose, 10% FBS
Excerpt: Red arrows indicated accumulation of peroxisomes (black dot-like structures) around the nucleus in PP3-treated cells but not in control (DMSO). (LN229 cells, DMEM 1 g/L glucose 10% FBS P/S).

Compound: CC(C)(Oc1ccc(C(=O)c2ccc(Cl)cc2)cc1)C(=O)O [FA, fenofibric acid]
crossing of the blood brain tumor barrier (BBTB) [1]: do not cross

Compound: CC(C)OC(=O)C(C)(C)Oc1ccc(C(=O)c2ccc(Cl)cc2)cc1 [FF, fenofibrate, reference compound]
conversion to FA in human blood [2]: almost all FF was converted to FA
% cell death ([3]; 48 hours): 24+/−4%
% cell death ([3]; 72 hours): 90+/−1%
% cell death ([3]; 96 hrs): 99+/−1.2%

Compound: CC(C)(C)OC(=O)NCCCCNC(=O)C(C)(C)Oc1ccc(C(=O)c2ccc(Cl)cc2)cc1 [H28]
CV = Cell viability (% of control) ([4]; 1 μM, MTT): 92.75±3.59 % of control
CV = Cell viability (% of control) ([4]; 5 μM, MTT): 65.90±2.82 % of control
CV = Cell viability (% of control) ([4]; 10 μM, MTT): 38.31±3.50 % of control

Compound: CN1CCN(C(=O)C(C)(C)Oc2ccc(C(=O)c3ccc(Cl)cc3)cc2)CC1.Cl [H35]
CV = Cell viability (% of control) ([4]; 1 μM, MTT): 93.64±2.08 % of control
CV = Cell viability (% of control) ([4]; 5 μM, MTT): 79.34±1.70 % of control
CV = Cell viability (% of control) ([4]; 10 μM, MTT): 56.26±0.59 % of control

Compound: CC(C)(Oc1ccc(C(=O)c2ccc(Cl)cc2)cc1)C(=O)N1CCC(N2CCOCC2)CC1 [H37, 2-[4-(4-chlorobenzoyl)phenoxy]-2-methyl-1-[4-(morpholin-4-yl)piperidin-1-yl]propan-1-one]
CV = Cell viability (% of control) ([4]; 1 μM, MTT): 109.20±5.73 % of control
CV = Cell viability (% of control) ([4]; 5 μM, MTT): 75.02±1.42 % of control
CV = Cell viability (% of control) ([4]; 10 μM, MTT): 47.02±1.23 % of control

Compound: CC(C)(Oc1ccc(C(=O)c2ccc(Cl)cc2)cc1)C(=O)N1CCC([NH+]2CCOCC2)CC1.[Cl-] [H38, 4-(1-{2-[4-(4-chlorobenzoyl)phenoxy]-2-methylpropanoyl}piperidin-4-yl)morpholin-4-iumchloride]
CV = Cell viability (% of control) ([4]; 1 μM, MTT): 97.97±11.41 % of control
CV = Cell viability (% of control) ([4]; 5 μM, MTT): 74.89±1.79 % of control
CV = Cell viability (% of control) ([4]; 10 μM, MTT): 52.00±1.86 % of control

Compound: CC(C)(Oc1ccc(C(=O)c2ccc(Cl)cc2)cc1)C(=O)N(CCO)CCO [H46]
CV = Cell viability (% of control) ([4]; 1 μM, MTT): 103.00±2.98 % of control
CV = Cell viability (% of control) ([4]; 5 μM, MTT): 86.15±8.50 % of control
CV = Cell viability (% of control) ([4]; 10 μM, MTT): 51.97±10.27 % of control

Compound: CC(C)OC(=O)C(C)(C)Oc1ccc(C(=O)c2ccccc2)cc1 [HR6]
anti-glioblastoma activity / relative potency ([4]; 25 μM, 72 hrs, MTT): virtually inactive

Compound: CC(C)OC(=O)C(C)(C)Oc1cccc(C(=O)c2ccccc2)c1 [HR7]
anti-glioblastoma activity / relative potency ([4]; 25 μM, 72 hrs, MTT): virtually inactive

Compound: CC(C)OC(=O)C(C)(C)Oc1ccc(C(=O)c2ccc(F)cc2)cc1 [HR8]
anti-glioblastoma activity / relative potency ([4]; 25 μM, 72 hrs, MTT): virtually the same activity (CV) as FF

Compound: CN(CCO)C(=O)C(C)(C)Oc1ccc(C(=O)c2ccc(F)cc2)cc1 [HR9]
anti-glioblastoma activity / relative potency ([4]; 25 μM, 72 hrs, MTT): lower potency than PP1

Compound: CC(C)(Oc1ccc(C(=O)c2ccc(F)cc2)cc1)C(=O)N1CCCCC1 [HR11]
anti-glioblastoma activity / relative potency ([4]; 25 μM, 72 hrs, MTT): slightly higher biological activity

Compound: CC(Oc1ccc(C(=O)c2ccc(Cl)cc2)cc1)C(=O)N1CCC(O)CC1 (stereo not drawn) [HR21]
cell death ([4]; 25 μM, 72 hrs): about 60%

Compound: CC(Oc1ccc(C(=O)c2ccc(Cl)cc2)cc1)C(=O)N1CCCCC1 (stereo not drawn) [HR22]
cell death ([4]; 25 μM, 72 hrs): about 60%

Compound: CC(C)(Oc1ccc(C(=O)c2ccc(Cl)cc2)cc1)C(=O)NCCCCN [HR31]
anti-glioblastoma activity / relative potency ([4]; 25 μM, 72 hrs, MTT): CV value similar to that of 25 μM FF

Compound: CN1CCN(C(=O)C(C)(C)Oc2ccc(C(=O)c3ccc(Cl)cc3)cc2)CC1.Cl [HR35, 4-{2-[4-(4-chlorobenzoyl)phenoxy]-2-methylpropanoyl}6-8,13-20,24-26,28,34,38-1-methylpiperazin-1-ium chloride]
anti-glioblastoma activity / relative potency ([4]; 25 μM, 72 hrs, MTT): more potent than its free base HR34

Compound: CC(C)(Oc1ccc(C(=O)c2ccc(Cl)cc2)cc1)C(=O)N1CC[N+](C)(C)CC1 [HR36, 4-{2-[4-(4-chlorobenzoyl)phenoxy]-2-methylpropanoyl}-1,1-dimethylpiperazin-1-ium iodide]
viability at 25 µM ([4]; Homo sapiens, LN-229, 25 μM, 72 hrs, MTT, read-out: CV = Cell viability (% of control)): 98%

Compound: CC(C)(Oc1ccc(C(=O)c2ccc(Cl)cc2)cc1)C(=O)N1CCC(N2CCOCC2)CC1 [HR37, 2-[4-(4-chlorobenzoyl)phenoxy]-2-methyl-1-[4-(morpholin-4-yl)piperidin-1-yl]propan-1-one]
anti-glioblastoma activity / relative potency ([4]; 25 μM, 72 hrs, MTT): more potent than its hydrochloric salt (HR38)

Compound: CC(C)(Oc1ccc(C(=O)c2ccc(Cl)cc2)cc1)C(=O)NCCO [HR39]
anti-glioblastoma activity / relative potency ([4]; 25 μM, 72 hrs, MTT): significantly less potent than PP1

Compound: CC(C)(Oc1ccc(C(=O)c2ccc(Cl)cc2)cc1)C(=O)N1CCC(O)CC1 [HR41]
anti-glioblastoma activity / relative potency ([4]; 25 μM, 72 hrs, MTT): less potent than PP1

Compound: CC(C)(Oc1ccc(C(=O)c2ccc(Cl)cc2)cc1)C(=O)NCC(O)CO (stereo not drawn) [HR42]
anti-glioblastoma activity / relative potency ([4]; 25 μM, 72 hrs, MTT): almost identical

Compound: CC(C)(Oc1ccc(C(=O)c2ccc(Cl)cc2)cc1)C(=O)NC(CO)CO [HR43]
anti-glioblastoma activity / relative potency ([4]; 25 μM, 72 hrs, MTT): almost identical

Compound: CN(CC(O)CO)C(=O)C(C)(C)Oc1ccc(C(=O)c2ccc(Cl)cc2)cc1 (stereo not drawn) [HR44]
anti-glioblastoma activity / relative potency ([4]; 25 μM, 72 hrs, MTT): more potent than the secondary amide HR39

Compound: CC(C)(Oc1ccc(C(=O)c2ccc(Cl)cc2)cc1)C(=O)NC(CO)(CO)CO [HR45]
anti-glioblastoma activity / relative potency ([4]; 25 μM, 72 hrs, MTT): slightly decreases the potency

Compound: CC(C)(Oc1ccc(C(=O)c2ccc(Cl)cc2)cc1)C(=O)N(CCO)CCO [HR46]
anti-glioblastoma activity / relative potency ([4]; 25 μM, 72 hrs, MTT): almost as potent as PP1

IC50 ([4]; Homo sapiens, LN-229, LN229, read-out: IC50 concentration): < 10 µM
Compound: CC(C)(Oc1ccc(C(=O)c2ccc(Cl)cc2)cc1)C(=O)Nc1ccccc1O [HR49, 2-(4-(4-chlorobenzoyl)phenoxy)-N-(2-hydroxyphenyl)-2-methylpropanamide]
anti-glioblastoma activity / relative potency ([4]; 25 μM, 72 hrs, MTT): more potent than HR48

Compound: CN1CCN(C(=O)C(C)(C)Oc2ccc(C(=O)c3ccc(Cl)cc3)cc2)CC1 [PP2, 2-[4-(4-chlorobenzoyl)phenoxy]-2-methyl-1-(4-methylpiperazin-1-yl)propan-1-one]
effect on PPAR responsive elements (PPRE) [5]: attenuate
cell death [3]: extensive cell death

Compound: CN(CC(O)C(O)C(O)C(O)CO)C(=O)C(C)(C)Oc1ccc(C(=O)c2ccc(Cl)cc2)cc1 [PP3, 2-[4-(4-chlorobenzoyl)phenoxy]-N,2-dimethyl-N-[(2S,3R,4R,5R)-2,3,4,5,6-pentahydroxyhexyl]propenamide]
effect on PPAR responsive elements (PPRE) [5]: does not repress PPAR responsive elements; also recorded: does not share this PPAR-inhibitory activity
stability dissolved in DMSO [6]: quite unstable
accumulation of peroxisomes [7]: extensive accumulation of peroxisomes
cytostatic effect ([3]; 10 μM): cytostatic activity

Compound: CC(C)(Oc1ccc(C(=O)c2ccc(Cl)cc2)cc1)C(=O)N1CCC(N2CCOCC2)CC1 [PP4, 2-[4-(4-chlorobenzoyl)phenoxy]-2-methyl-1-[4-(morpholin-4-yl)piperidin-1-yl]propan-1-one]
effect on PPAR responsive elements (PPRE) [5]: attenuate
cell death [3]: extensive cell death

Reference: patent US20220304957A1, “ANTI-CANCER COMPOSITIONS AND METHODS OF USE” (Board of Supervisors of Louisiana State University and …, priority 2019, published 2022)
